“Also recorded” adds a separate entry of the source.
Assays:
[1] = molecular target: T1, slc26a3 (DRA) (Mus musculus, UniProt Q9WVC8); format: cell-based, murine; settings: for slc26a3 inhibition at 5 μM: 5 μM compound
T1 sequence (Q9WVC8 1-757): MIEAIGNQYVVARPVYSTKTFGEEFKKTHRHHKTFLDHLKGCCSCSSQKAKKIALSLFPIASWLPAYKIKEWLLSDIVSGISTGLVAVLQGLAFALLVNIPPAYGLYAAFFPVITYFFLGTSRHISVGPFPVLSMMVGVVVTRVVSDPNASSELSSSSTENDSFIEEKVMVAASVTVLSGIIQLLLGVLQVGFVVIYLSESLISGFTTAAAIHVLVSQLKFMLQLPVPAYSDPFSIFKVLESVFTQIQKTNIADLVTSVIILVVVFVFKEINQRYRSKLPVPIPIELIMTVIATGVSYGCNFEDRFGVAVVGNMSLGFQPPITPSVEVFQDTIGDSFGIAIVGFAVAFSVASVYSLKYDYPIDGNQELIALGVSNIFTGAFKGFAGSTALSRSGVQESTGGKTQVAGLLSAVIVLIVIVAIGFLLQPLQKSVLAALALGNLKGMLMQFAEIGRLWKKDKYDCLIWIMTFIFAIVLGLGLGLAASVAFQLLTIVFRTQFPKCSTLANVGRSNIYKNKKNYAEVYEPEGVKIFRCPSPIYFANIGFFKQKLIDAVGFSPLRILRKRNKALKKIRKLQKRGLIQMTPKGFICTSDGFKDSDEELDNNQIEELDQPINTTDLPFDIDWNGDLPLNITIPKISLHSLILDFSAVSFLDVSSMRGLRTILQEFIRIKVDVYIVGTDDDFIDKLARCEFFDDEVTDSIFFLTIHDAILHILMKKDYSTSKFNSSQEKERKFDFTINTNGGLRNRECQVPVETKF

[2] = test system: loperamide-treated mice; settings: cited from earlier work
[3] = Pharmacokinetics in mice, serum concentration by LC/MS; format: in vivo; settings: for bioavailability: mouse, serum, po
[4] = molecular target: T2, slc26a4 (pendrin) (Mus musculus, UniProt Q9R155); format: cell-based, murine; settings: 10 μM compound, 10 min preincubation
T2 sequence (Q9R155 1-780): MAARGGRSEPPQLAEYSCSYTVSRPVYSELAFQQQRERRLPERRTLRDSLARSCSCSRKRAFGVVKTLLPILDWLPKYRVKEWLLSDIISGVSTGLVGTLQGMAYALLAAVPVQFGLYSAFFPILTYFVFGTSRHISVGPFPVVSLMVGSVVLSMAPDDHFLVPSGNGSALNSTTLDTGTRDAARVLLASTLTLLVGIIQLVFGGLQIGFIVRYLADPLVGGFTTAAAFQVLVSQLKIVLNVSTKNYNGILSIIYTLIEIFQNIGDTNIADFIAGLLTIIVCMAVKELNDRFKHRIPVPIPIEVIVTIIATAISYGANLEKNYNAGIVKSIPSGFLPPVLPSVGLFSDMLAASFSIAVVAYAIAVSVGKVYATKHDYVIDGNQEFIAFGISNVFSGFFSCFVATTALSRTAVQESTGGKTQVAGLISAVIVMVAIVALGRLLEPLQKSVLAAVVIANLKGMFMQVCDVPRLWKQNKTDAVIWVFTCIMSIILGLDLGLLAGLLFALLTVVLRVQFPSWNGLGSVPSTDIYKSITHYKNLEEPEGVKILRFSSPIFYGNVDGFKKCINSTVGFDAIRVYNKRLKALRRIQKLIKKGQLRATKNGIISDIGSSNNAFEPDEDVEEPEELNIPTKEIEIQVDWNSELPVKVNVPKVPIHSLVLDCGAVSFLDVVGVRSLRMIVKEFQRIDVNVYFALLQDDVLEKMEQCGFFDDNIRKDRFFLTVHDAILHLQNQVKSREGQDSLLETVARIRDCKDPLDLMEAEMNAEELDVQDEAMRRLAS

[5] = molecular target: T3, SLC26A9 (Homo sapiens, UniProt Q7LBE3); format: cell-based; settings: 10 μM compound, 10 min preincubation
T3 sequence (Q7LBE3 1-791): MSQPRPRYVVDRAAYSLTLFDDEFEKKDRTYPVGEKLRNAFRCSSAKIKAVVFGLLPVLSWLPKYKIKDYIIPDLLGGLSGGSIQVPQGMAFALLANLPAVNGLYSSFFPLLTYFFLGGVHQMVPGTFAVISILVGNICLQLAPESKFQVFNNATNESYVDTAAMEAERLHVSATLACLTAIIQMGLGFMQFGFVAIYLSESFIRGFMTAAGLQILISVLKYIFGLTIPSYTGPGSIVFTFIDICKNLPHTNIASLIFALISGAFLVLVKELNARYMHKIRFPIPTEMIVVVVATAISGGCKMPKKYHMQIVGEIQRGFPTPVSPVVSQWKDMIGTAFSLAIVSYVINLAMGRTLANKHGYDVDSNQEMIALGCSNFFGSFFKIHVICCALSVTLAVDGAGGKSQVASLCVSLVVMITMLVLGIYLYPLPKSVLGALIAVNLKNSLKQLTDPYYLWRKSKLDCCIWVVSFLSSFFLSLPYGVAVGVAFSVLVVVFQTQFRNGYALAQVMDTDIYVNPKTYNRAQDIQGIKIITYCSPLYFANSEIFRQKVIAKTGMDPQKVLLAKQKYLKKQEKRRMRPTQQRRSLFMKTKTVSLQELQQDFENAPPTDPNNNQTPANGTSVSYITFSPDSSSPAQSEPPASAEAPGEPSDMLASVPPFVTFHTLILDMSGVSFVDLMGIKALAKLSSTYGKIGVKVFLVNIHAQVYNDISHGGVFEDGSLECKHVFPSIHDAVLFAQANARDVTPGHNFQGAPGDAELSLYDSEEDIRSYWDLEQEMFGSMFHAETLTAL

[6] = molecular target: T4, slc26a6 (PAT-1) (Mus musculus, UniProt Q8CIW6); format: cell-based, murine; settings: 10 μM compound, 10 min preincubation
T4 sequence (Q8CIW6 1-758): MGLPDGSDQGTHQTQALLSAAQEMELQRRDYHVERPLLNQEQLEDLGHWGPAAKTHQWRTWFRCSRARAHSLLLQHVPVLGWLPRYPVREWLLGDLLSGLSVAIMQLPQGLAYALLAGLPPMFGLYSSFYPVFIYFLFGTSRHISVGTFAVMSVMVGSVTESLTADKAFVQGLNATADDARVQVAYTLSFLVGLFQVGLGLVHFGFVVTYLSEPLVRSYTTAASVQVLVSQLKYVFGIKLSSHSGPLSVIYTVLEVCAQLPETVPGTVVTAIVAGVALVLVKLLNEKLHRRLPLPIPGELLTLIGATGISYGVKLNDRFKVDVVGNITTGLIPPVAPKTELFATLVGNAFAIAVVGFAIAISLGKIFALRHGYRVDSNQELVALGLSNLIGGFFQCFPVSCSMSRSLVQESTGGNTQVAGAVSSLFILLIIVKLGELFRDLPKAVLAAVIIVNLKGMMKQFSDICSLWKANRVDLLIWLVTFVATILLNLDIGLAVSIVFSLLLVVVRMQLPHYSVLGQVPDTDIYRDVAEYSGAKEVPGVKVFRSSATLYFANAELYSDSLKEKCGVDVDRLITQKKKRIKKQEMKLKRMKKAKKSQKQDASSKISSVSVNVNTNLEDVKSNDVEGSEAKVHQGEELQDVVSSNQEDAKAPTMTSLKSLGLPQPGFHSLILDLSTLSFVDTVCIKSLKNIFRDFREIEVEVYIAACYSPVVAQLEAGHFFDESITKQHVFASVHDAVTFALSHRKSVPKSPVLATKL

[7] = test system: loperamide-treated mice; test: Loperamide-induced constipation model in mice; format: in vivo; settings: for Stool water content: 3 h stool

With `Cc1c(CC(N)=O)c(=O)oc2c(C)c(OCc3cccc(Br)c3)ccc12` [8ae] the “slc26a3 inhibition activity, in words” value [1] was “much reduced inhibition”.
With `Cc1c(CC(=O)O)c(=O)oc2c(C)c(OCCc3cccc(C(F)(F)F)c3)ccc12` [4as] the “slc26a3 inhibition at 5 μM” value [1] was “no inhibition”.
For `Cc1c(CC(=O)O)c(=O)oc2c(C)c(OCc3cccc(Br)c3)ccc12` [4ba, 2-(7-((3-Bromobenzyl)oxy)-4,8-dimethyl-2-oxo-2H-chromen-3-yl)acetic Acid], the “Efficacy in a mouse model of constipation” value [2] is given as “showed efficacy” and the bioavailability ([3]; 5 mg/kg) is given as 54 ± 6.5%.
In the case of `C=CCOc1ccc2c(C)c(CC(=O)O)c(=O)oc2c1C` [4aa], the “slc26a3 inhibition at 5 μM” value [1] is reported as “no inhibition”.
With `Cc1c(CC(=O)O)c(=O)oc2c(C)c(OCc3cccc(I)c3)ccc12` [4az] the “Inhibition of chloride/iodide exchange, slc26a4 (pendrin)” value [4] was “not significantly inhibited”, the “Extent of inhibition of slc26a3-mediated anion exchange” value [1] was “fully inhibited” and the “Inhibition of chloride/iodide exchange, SLC26A9” value [5] was “not significantly inhibited”. For the same compound, the “Inhibition of chloride/iodide exchange, slc26a6 (PAT-1)” value [6] was “not significantly inhibited”, the “Duration of predicted therapeutic concentrations in serum” value ([3]; mice, single 10 mg/kg dose, oral (b1), oral or intraperitoneal) was greater than 72 h and the bioavailability ([3]; 10 mg/kg) was 39 ± 4%. The “Effect on stool parameters compared to vehicle” value ([7]; control mice not treated with loperamide) was “no significant effect”, the Stool water content ([7]; loperamide-treated mice, 3 mg/kg oral) was “fully normalized” and the Stool water content ([7]; loperamide-treated mice, 10 mg/kg oral) was “fully normalized”.
For `Cc1c(OCc2cccc(Br)c2)ccc2cc(C(=O)O)c(=O)oc12` [8aa], the “slc26a3 inhibition activity, in words” value [1] was “inactive”.
For `Cc1c(CC(=O)O)c(=O)oc2c(C)c(OS(=O)(=O)c3cccc(Cl)c3)ccc12` [4ar], the “slc26a3 inhibition at 5 μM” value [1] was “no inhibition”.
With `Cc1c(CC(=O)O)c(=O)oc2c(C)c(OCCn3cccc3)ccc12` [4ap] the “slc26a3 inhibition at 5 μM” value [1] was “inactive”.
With `Cc1cccc(S(=O)(=O)Oc2ccc3c(C)c(CC(=O)O)c(=O)oc3c2C)c1` [4aq] the “slc26a3 inhibition at 5 μM” value [1] was “no inhibition”.
With `COc1ccc2ccc(=O)oc2c1` [S3] the “slc26a3 inhibition activity, in words” value [1] was “inactive”.
In the case of `CCCOc1ccc2c(C)c(CC(=O)O)c(=O)oc2c1C` [4ad], the “slc26a3 inhibition at 5 μM” value [1] is reported as “no inhibition”.
For `Cc1c(CC(=O)O)c(=O)oc2c(C)c(OCc3cccc(C(F)(F)F)c3)ccc12` [4be], the “Inhibition of chloride/iodide exchange, slc26a4 (pendrin)” value [4] was “not significantly inhibited”, the “Extent of inhibition of slc26a3-mediated anion exchange” value [1] was “fully inhibited” and the “Inhibition of chloride/iodide exchange, SLC26A9” value [5] was “not significantly inhibited”. The “Inhibition of chloride/iodide exchange, slc26a6 (PAT-1)” value [6] was “not significantly inhibited”, the “Serum level at 16 h” value ([3]; mice, single dose 5 mg/kg oral or intraperitoneal, 16 h) was “little compound remaining” and the bioavailability ([3]; 5 mg/kg) was 16 ± 7%. For the same compound, the “3 h stool weight, pellet number, and water content” value ([7]; loperamide-treated mice, 5 mg/kg oral 1 h before loperamide, 5 mg/kg) was “partially prevented constipation; also recorded: improved”.

Source: PMC7034394 (Journal of medicinal chemistry, 2019)
